According to ChEMBL document CHEMBL5649166, “RIP3 induces apoptosis independent of pronecrotic kinase activity” (Mol Cell, 2014):

Columns and labels:
[1] = target: Proto-oncogene tyrosine-protein kinase receptor Ret (Homo sapiens) (UniProt P07949); assay: Inhibition of human RET using RRRRRRRRRRRVYSTDYYRLFNPS as substrate at 1 uM in presence of 32P-ATP by Hotspot assay relative to control
[2] = target: Serine/threonine-protein kinase SIK2 (Homo sapiens) (UniProt Q9H0K1); assay: Inhibition of human SIK2 using AMARAASAAALARRR as substrate at 1 uM in presence of 32P-ATP by Hotspot assay relative to control
[3] = target: T1, Serine/threonine-protein kinase Nek3 (Homo sapiens) (UniProt P51956); assay: Residual activity of human NEK3 using myelin basic protein as substrate at 1 uM in presence of 32P-ATP by Hotspot assay relative to control
T1 sequence (whole entry): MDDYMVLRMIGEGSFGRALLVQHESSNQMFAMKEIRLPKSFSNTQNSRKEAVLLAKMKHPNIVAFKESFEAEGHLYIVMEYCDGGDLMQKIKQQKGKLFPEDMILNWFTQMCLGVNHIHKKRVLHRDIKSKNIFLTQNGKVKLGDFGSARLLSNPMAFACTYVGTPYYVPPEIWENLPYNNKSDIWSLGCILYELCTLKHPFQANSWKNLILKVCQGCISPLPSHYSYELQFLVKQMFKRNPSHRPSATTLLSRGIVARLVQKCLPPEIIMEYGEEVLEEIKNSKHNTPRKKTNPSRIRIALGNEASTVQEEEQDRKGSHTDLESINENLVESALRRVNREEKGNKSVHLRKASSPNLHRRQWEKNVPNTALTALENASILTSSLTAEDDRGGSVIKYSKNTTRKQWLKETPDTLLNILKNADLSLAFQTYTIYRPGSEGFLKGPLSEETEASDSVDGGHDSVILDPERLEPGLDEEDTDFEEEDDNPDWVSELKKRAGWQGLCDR

[4] = target: Dual specificity mitogen-activated protein kinase kinase 2 (Homo sapiens) (UniProt P36507); assay: Inhibition of human MEK2 using ERK2 (K52R) as substrate at 1 uM in presence of 32P-ATP by Hotspot assay relative to control; values are per cent of control
[5] = target: Serine/threonine-protein kinase pim-2 (Homo sapiens) (UniProt Q9P1W9); assay: Inhibition of human PIM2 using RSRHSSYPAGT as substrate at 1 uM in presence of 32P-ATP by Hotspot assay relative to control; values are per cent of control
[6] = target: Serine/threonine-protein kinase pim-3 (Homo sapiens) (UniProt Q86V86); assay: Inhibition of human PIM3 using RSRHSSYPAGT as substrate at 1 uM in presence of 32P-ATP by Hotspot assay relative to control; values are per cent of control
[7] = target: Death-associated protein kinase 1 (Homo sapiens) (UniProt P53355); assay: Inhibition of human DAPK1 using KKLNRTLSFAEPG as substrate at 1 uM in presence of 32P-ATP by Hotspot assay relative to control; values are per cent of control
[8] = target: Tyrosine-protein kinase ABL2 (Homo sapiens) (UniProt P42684); assay: Inhibition of human ABL2/ARG using EAIYAAPFAKKK as substrate at 1 uM in presence of 32P-ATP by Hotspot assay relative to control; values are per cent of control
[9] = target: Tyrosine-protein kinase Blk (Homo sapiens) (UniProt P51451); assay: Inhibition of human BLK using poly[Glu:Tyr] (4:1) as substrate at 1 uM in presence of 32P-ATP by Hotspot assay relative to control; values are per cent of control
[10] = target: Casein kinase I isoform gamma-1 (Homo sapiens) (UniProt Q9HCP0); assay: Inhibition of human CK1g1 using KRRRAL[pS]VASLPGL as substrate at 1 uM in presence of 32P-ATP by Hotspot assay relative to control; values are per cent of control
[11] = target: Ephrin type-A receptor 2 (Homo sapiens) (UniProt P29317); assay: Inhibition of human EPHA2 using poly[Glu:Tyr] (4:1) as substrate at 1 uM in presence of 32P-ATP by Hotspot assay relative to control; values are per cent of control
[12] = target: Fibroblast growth factor receptor 3 (Homo sapiens) (UniProt P22607); assay: Inhibition of human FGFR3 using poly[Glu:Tyr] (4:1) as substrate at 1 uM in presence of 32P-ATP by Hotspot assay relative to control; values are per cent of control
[13] = target: Serine/threonine-protein kinase WNK2 (Homo sapiens) (UniProt Q9Y3S1); assay: Inhibition of human WNK2 using myelin basic protein as substrate at 1 uM in presence of 32P-ATP by Hotspot assay relative to control; values are per cent of control
[14] = target: Focal adhesion kinase 1 (Homo sapiens) (UniProt Q05397); assay: Inhibition of human FAK/PTK2 using poly[Glu:Tyr] (4:1) as substrate at 1 uM in presence of 32P-ATP by Hotspot assay relative to control; values are per cent of control
[15] = target: Mitogen-activated protein kinase kinase kinase kinase 5 (Homo sapiens) (UniProt Q9Y4K4); assay: Inhibition of human KHS/MAP4K5 using myelin basic protein as substrate at 1 uM in presence of 32P-ATP by Hotspot assay relative to control; values are per cent of control
[16] = target: Serine/threonine-protein kinase MARK2 (Homo sapiens) (UniProt Q7KZI7); assay: Inhibition of human MARK2/PAR-1Ba using KKKVSRSGLYRSPSMPENLNRPR as substrate at 1 uM in presence of 32P-ATP by Hotspot assay relative to control; values are per cent of control

Proto-oncogene tyrosine-protein kinase receptor Ret (Homo sapiens), sequence (P07949 whole entry): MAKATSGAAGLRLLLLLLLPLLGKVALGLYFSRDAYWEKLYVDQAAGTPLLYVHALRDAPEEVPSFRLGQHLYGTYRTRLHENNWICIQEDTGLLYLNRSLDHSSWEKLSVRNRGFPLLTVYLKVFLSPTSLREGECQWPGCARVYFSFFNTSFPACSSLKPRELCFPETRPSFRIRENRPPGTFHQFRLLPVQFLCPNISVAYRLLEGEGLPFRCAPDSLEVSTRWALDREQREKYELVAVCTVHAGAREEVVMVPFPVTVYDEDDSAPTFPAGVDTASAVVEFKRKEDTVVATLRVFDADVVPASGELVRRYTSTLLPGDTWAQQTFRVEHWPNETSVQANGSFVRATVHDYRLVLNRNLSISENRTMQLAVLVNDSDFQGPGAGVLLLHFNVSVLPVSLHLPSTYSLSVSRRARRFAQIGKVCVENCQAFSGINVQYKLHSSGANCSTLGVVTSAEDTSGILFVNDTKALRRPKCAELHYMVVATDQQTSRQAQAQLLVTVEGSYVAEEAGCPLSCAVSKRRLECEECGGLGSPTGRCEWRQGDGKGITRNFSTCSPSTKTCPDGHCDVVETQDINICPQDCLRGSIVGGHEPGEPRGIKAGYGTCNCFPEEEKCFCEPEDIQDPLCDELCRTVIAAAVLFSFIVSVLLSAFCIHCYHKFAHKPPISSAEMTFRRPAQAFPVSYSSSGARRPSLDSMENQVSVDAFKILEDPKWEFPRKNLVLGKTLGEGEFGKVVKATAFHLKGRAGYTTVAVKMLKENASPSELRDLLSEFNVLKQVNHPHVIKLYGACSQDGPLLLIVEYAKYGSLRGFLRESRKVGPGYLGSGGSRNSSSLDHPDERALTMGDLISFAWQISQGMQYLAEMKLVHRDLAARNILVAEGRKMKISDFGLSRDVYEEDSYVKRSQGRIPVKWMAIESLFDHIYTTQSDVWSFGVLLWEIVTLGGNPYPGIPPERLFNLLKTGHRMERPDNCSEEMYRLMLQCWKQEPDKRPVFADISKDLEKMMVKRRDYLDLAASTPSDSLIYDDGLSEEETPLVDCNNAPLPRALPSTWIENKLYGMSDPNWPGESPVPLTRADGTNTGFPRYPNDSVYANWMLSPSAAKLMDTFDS
Casein kinase I isoform gamma-1 (Homo sapiens), sequence (Q9HCP0 whole entry, looked up, canonical isoform): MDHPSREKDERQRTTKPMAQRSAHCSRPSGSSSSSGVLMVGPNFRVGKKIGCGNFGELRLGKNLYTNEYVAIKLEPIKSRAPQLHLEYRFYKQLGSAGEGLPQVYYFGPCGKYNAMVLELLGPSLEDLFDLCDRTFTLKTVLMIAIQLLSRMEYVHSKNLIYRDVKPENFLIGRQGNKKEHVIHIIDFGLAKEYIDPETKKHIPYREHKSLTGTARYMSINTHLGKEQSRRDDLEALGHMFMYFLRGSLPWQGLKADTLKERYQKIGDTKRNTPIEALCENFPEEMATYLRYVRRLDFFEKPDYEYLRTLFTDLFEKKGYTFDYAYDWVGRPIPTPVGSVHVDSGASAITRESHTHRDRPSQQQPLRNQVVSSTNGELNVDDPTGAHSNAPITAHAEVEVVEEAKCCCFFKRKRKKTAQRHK
Serine/threonine-protein kinase WNK2 (Homo sapiens), sequence (Q9Y3S1 whole entry): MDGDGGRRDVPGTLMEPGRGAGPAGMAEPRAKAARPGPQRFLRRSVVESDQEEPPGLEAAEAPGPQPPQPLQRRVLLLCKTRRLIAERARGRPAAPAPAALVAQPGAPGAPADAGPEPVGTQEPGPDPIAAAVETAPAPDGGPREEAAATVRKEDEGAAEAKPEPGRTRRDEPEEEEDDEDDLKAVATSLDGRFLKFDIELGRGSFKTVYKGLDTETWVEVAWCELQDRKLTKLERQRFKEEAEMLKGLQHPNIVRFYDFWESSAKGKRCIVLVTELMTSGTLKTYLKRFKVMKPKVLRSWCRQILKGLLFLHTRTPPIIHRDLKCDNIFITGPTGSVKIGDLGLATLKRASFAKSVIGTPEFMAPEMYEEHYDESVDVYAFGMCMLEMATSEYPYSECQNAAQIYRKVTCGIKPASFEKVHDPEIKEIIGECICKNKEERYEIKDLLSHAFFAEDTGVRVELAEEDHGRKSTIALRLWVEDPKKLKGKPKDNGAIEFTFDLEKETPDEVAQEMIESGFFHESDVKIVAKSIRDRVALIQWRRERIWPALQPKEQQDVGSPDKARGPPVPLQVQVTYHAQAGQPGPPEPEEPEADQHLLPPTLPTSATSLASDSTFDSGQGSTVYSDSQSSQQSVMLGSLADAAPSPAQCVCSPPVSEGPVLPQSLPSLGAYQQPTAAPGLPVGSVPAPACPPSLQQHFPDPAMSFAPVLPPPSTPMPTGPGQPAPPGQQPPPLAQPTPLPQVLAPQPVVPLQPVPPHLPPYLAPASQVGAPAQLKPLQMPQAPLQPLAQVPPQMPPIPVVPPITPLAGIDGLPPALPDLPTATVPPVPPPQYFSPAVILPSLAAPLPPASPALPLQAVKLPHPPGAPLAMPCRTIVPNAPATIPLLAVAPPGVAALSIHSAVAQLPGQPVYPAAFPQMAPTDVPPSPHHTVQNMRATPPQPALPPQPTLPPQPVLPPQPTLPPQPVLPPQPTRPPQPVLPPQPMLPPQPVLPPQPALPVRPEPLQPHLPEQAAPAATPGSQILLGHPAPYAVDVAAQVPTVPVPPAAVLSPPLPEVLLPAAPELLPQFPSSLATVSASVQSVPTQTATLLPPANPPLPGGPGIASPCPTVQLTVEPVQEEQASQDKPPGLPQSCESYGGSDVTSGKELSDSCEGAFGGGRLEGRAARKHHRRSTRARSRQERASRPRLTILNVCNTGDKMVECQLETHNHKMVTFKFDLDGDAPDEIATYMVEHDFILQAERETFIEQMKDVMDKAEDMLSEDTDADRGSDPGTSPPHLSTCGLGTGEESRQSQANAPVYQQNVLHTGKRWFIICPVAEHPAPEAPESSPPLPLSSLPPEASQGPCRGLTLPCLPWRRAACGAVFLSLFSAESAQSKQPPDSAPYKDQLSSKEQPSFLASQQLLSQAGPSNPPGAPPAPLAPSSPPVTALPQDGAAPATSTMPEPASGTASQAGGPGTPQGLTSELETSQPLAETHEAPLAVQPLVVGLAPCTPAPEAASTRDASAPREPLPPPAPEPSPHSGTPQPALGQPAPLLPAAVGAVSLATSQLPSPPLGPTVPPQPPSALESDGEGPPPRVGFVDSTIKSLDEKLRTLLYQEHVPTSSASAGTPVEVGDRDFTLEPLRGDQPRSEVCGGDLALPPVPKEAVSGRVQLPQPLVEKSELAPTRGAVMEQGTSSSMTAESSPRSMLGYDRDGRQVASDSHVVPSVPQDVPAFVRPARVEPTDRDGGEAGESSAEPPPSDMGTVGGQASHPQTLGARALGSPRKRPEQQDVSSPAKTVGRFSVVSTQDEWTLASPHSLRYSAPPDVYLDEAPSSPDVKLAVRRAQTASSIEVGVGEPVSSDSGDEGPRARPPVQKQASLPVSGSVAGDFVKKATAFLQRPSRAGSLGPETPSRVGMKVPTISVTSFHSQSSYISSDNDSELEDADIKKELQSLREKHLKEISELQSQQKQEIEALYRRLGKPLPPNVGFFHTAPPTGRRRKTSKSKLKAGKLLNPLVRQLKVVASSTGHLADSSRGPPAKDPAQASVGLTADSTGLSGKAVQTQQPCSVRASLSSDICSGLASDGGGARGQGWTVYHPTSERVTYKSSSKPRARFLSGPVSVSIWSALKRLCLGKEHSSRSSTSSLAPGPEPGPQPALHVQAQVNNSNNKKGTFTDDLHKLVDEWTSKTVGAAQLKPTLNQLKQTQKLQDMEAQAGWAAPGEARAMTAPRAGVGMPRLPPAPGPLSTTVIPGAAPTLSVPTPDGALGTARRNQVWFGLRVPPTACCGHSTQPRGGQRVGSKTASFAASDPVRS
Mitogen-activated protein kinase kinase kinase kinase 5 (Homo sapiens), sequence (Q9Y4K4 whole entry, looked up): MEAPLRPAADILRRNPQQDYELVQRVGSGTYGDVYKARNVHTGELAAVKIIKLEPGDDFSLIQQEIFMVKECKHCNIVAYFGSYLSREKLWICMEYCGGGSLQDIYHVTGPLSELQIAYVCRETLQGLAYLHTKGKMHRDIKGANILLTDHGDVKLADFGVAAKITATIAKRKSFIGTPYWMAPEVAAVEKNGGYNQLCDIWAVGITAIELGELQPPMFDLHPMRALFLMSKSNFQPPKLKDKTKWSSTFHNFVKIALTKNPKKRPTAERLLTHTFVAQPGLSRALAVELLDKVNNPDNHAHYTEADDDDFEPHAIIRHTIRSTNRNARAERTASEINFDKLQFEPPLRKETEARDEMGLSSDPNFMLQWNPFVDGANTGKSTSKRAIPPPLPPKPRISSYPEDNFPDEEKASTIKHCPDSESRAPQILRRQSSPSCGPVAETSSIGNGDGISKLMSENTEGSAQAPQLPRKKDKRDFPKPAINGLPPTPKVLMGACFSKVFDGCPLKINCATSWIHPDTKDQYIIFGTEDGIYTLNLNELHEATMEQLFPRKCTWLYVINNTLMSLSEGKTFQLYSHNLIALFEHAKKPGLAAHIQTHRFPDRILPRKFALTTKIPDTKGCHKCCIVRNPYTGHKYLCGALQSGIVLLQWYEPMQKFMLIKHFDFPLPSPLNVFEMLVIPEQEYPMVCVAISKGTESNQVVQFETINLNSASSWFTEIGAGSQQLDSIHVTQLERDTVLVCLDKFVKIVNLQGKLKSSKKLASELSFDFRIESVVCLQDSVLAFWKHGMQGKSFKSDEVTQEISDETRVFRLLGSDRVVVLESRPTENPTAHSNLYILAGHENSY
Dual specificity mitogen-activated protein kinase kinase 2 (Homo sapiens), sequence (P36507 whole entry): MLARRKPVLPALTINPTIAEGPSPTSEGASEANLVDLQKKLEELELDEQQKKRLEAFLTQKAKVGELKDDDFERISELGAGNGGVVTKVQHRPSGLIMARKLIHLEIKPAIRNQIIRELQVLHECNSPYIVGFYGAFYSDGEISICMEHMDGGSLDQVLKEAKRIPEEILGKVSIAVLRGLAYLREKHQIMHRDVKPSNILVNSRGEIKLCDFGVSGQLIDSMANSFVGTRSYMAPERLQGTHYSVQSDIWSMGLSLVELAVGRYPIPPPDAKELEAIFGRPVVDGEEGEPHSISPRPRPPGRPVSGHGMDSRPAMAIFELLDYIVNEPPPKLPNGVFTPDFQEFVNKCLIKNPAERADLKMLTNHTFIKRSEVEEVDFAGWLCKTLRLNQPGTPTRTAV

Structure (SMILES) | inhibition [1] [%] | inhibition [2] [%] | residual activity [3] [%] | residual activity [4] [%] | residual activity [5] [%] | residual activity [6] [%] | residual activity [7] [%] | residual activity [8] [%] | residual activity [9] [%] | residual activity [10] [%] | residual activity [11] [%] | residual activity [12] [%] | residual activity [13] [%] | residual activity [14] [%] | residual activity [15] [%] | residual activity [16] [%]
Cc1cc(-c2cnc(N)c3c(-c4ccc5scnc5c4)csc23)n(C)n1 | 30 | 92 | 99.7 | 97.8 | 93.7 | 99.5 | 95.3 | 7.38 | 39.3 | 94.2 | 74.3 | 65 | 98.9 | 97.3 | 64.3 | 95.2
CC(C)S(=O)(=O)c1ccc2nccc(Nc3ccc4scnc4c3)c2c1 | 48.1 | 93.1 | 92 | 105 | 94.9 | 94.2 | 97 | 12 | 62.8 | 103 | 80.1 | 94.3 | 103 | 93.9 | 109 | 96.6
CNC(=O)c1ccc2c(c1)ncn2-c1ccc(CC(=O)OC(C)(C)C)cc1 | 92.2 | 93.2 | 91.3 | 98.3 | 90.8 | 99.9 | 91.6 | 78.2 | 73.9 | 97.1 | 97.3 | 65.3 | 97.9 | 102 | 89 | 95.6
